`Cc1c(-c2ccccc2)oc2cc(NC(=O)C(=O)O)ccc2c1=O` showed a melting point of 243 °C.
Work on `CCOC(=O)c1nc(-c2ccc(F)cc2)c(-c2ccc(=O)n(C(C)C)n2)s1` yielded a melting point of 193 to 194 °C.
`CC(=O)OC1CC2(C)C(=O)CCC2C2CC=C3CC(O)CCC3(C)C12` (stereo unspecified) showed a melting point of 155 to 156 °C.
For `COCC(=O)N[C@H]1c2ccccc2C[C@@H]1C`, the melting point was 78 to 79 °C.
For `Cc1c(/C=C2\COc3ccc4ccccc4c3C2=O)ncn1C(c1ccccc1)(c1ccccc1)c1ccccc1`, the melting point was 164 to 167 °C.
Work on `CCN1C(=S)NNC1c1ccccc1NC(C)=O` (stereo unspecified) yielded a melting point of 193 to 194 °C.
`O=C(O)c1ccc(O)c(Nc2cc(Cl)cc(Cl)c2)c1` showed a melting point of 166 to 167 °C.
`COc1ccc(Nc2nc(Cl)nc3c(OC)cccc23)c(C)c1` gave a melting point of 230 to 232 °C.
`CCCCCOc1ccc(-c2ccc(-c3ccc(C(=O)OC)cc3)cc2)cc1` showed a melting point of 248 °C.
`CCCc1noc(-c2ccccc2)c1-c1ccc(S(N)(=O)=O)cc1` showed a melting point of 167 °C.
Compound `O=C1c2ccccc2C(=O)c2c(NCCN3CCOCC3)ccc(NCCN3CCOCC3)c21` has a melting point of 158 to 159 °C.
`Cc1nc2sc3cc(F)ccc3n2c1CO` gave a melting point of 230 to 235 °C.
`O=[N+]([O-])c1ccc(-c2cccs2)cc1-c1cccs1` showed a melting point of 111 to 112 °C.
`NC(=O)c1ccccc1-c1cnn(CCN2CCCCC2)c1` gave a melting point of 168 °C.
`OC(c1ccc(F)cc1)(c1ccc(F)cc1)C1CCNC1` (stereo unspecified) gave a melting point of 152 to 153 °C.
In the case of `O=C(NCc1ccccc1Cl)c1ccc(Br)cc1`, the melting point is reported as 133 °C.
Compound `Cc1oc(-c2ccccc2)nc1CCC(=O)c1ccc(Br)cc1` has a melting point of 80 to 81 °C.
In the case of `Cc1ccc(C2=NC(O)(C(F)(F)F)CN2c2ccc(S(C)(=O)=O)cc2)cc1` (stereo unspecified), the melting point is reported as 198 to 199 °C.
In the case of `CN(C)CCCn1ccc(-c2ccc(F)cc2)c1-c1ccncc1`, the melting point is reported as 93 to 95 °C.
Compound `OCc1cc(OCc2ccccc2)nn1C1CCCCC1` has a melting point of 195 to 196 °C.
In the case of `COC(=O)c1cc(OCC=C(Cl)Cl)cc(Cl)c1O`, the melting point is reported as 86 °C.
Work on `CC1(C)CCOc2cc(C(=O)Nc3ccc(C(=O)O)cc3)ccc21` yielded a melting point of 279 to 281 °C.
With `c1ccc2nc(N3CCNCC3)c(OCCOc3cncnc3)nc2c1` the melting point was 115 to 117 °C.
In the case of `CC(C)C[C@H](NC(=O)c1ccc2c(c1)Nc1ccccc1S2)C(=O)N[C@H]1CCOC1OC(=O)c1ccccc1` (stereo partly specified), the melting point is reported as 193 to 195 °C.
With `N#Cc1c2ccccc2c(-c2cc(Br)c(O)c(Br)c2)c2c1sc1ccccc12` the melting point was 321 to 323 °C.
In the case of `COc1cccc(CC(=O)O)c1OCCCc1cn(-c2ccc(C)cn2)nc1C(C)C`, the melting point is reported as 132 to 133 °C.
With `COC(=O)c1ccc(C=Cc2ccc([N+](=O)[O-])c(C#N)c2)cc1` the melting point was 266 to 269 °C.
For `COC(=O)c1ccc(-c2oc3nc[nH]c(=O)c3c2C(=O)OCc2ccccc2)cc1`, the melting point was 248 to 249 °C.
Compound `Cc1n[nH]c2c1c(=O)n(-c1ccccc1)c1ncccc21` has a melting point greater than 300 °C.
`O=C(OC1C(O)COC(Oc2ccc([N+](=O)[O-])cc2)C1OC(=O)c1ccccc1)c1ccccc1` (stereo unspecified) gave a melting point of 150 to 151 °C.
`CC1(C)CC(N2CCN(Cc3ccccc3)C2=O)c2cc(C#N)ccc2O1` (stereo unspecified) gave a melting point of 45 to 48 °C.
Work on `O=C1CN2C(=O)C(c3ccccc3)(c3ccccc3)c3cccc(c32)N1` yielded a melting point of 235 to 255 °C.
For `CCCCCCCCCCCCCCC(=O)C(=O)NCCCC(=O)OC(C)(C)C`, the melting point was 61 to 62 °C.
With `COC(=O)C1=C(C)NC(C#N)=C(C(=O)OC)C1c1cccc2c(=O)c(C)c(-c3ccccc3)oc12` (stereo unspecified) the melting point was 250 °C.
Work on `COc1cc(OCc2ccccn2)ccc1/C=C/c1cc(/C=C/c2ccc3c(c2)OCO3)n[nH]1` yielded a melting point of 218 to 220 °C.
For `Nc1ccc(OCC(COc2ccc(N)cc2)(COc2ccc(N)cc2)COc2ccc(N)cc2)cc1`, the melting point was 210 to 211 °C.
`CC(C)(CNCCCCCCNCC(C)(C)[N+](=O)[O-])[N+](=O)[O-]` gave a melting point of 26 to 27 °C.
For `COc1cc(Nc2c(C#N)cnc3cc(-c4ccc(CO)cc4)ccc23)c(Cl)cc1Cl`, the melting point was 264 to 267 °C.
Compound `CC1Sc2c(C(=O)O)c(=O)c3cc(F)c(N4CCC(O)C4)cc3n21` (stereo unspecified) has a melting point of 206 to 208 °C.
`Cc1c(N)c(F)cc2c(=O)c(C(=O)O)cn(-c3cc(O)c(F)cc3F)c12` gave a melting point greater than 280 °C.
`CCOC(=O)Nc1ccc(C(=O)c2ccccc2)cc1COC1CCCCO1` (stereo unspecified) gave a melting point of 116 °C.
Compound `Cc1cc(NC(=O)c2cc(F)cc(N(C3CN(C(c4ccc(Cl)cc4)c4ccc(Cl)cc4)C3)S(C)(=O)=O)c2)no1` has a melting point of 222 to 224 °C.
For `CNc1nc(NN)ncc1C#N`, the melting point was 247 to 249 °C.
In the case of `CC(C)(C)OC(=O)Nc1cc(OC(C)(C)C)c(I)cc1[N+](=O)[O-]`, the melting point is reported as 94 °C.
For `CS(=O)c1c(N)nc(N)nc1Cl` (stereo unspecified), the melting point was 126 to 128 °C.
In the case of `CCOC(=O)C=C(C)C=CC=C(C)C=Cc1c(Cl)cc(OC)cc1Cl`, the melting point is reported as 117 to 118 °C.
Compound `COC(=O)c1c(Cl)cc(Cl)cc1NC(=O)CSc1ccc(NC(=O)Cc2ccccc2)cc1` has a melting point of 156 to 158 °C.
For `O=c1ccccn1C1=CC(CF)(CF)Oc2ccc(C(F)(F)C(F)(F)F)cc21`, the melting point was 137 to 138 °C.
`CO[C@@H]1CC[C@@H](NC(C)=O)c2ccccc21` (relative stereo) showed a melting point of 97 to 100 °C.
Work on `OCc1ccc(I)cc1O` yielded a melting point of 129 to 131 °C.
For `O=C(Nc1ccnnc1)NC1CCCCCC1`, the melting point was 226 to 228 °C.
`CCCCN(C)c1c(-c2ccc(OC)cc2)sc2ccccc12` showed a melting point of 61 to 62 °C.
Compound `CCCCCCCCCCCCCCCCCC(=O)NC(C)C(=O)NC(CCC(=O)NC(C=CCCC(=O)O)C(=O)O)C(=O)O` (stereo unspecified) has a melting point of 200 °C.
With `COCC(=O)NC(CC(=O)Nc1n[nH]c(=S)s1)c1ccccc1` (stereo unspecified) the melting point was 241 to 242 °C.
`Cn1ncc2c(=O)n3c(nc21)SCCC3` gave a melting point of 179 to 180 °C.
For `N#CCSc1nc2ccc(Cl)nc2s1`, the melting point was 112 to 114 °C.
`CN1CCN(Cc2ccc(COc3cccc4c3CN(C3CCC(=O)NC3=O)C4=O)cc2)CC1` (stereo unspecified) showed a melting point of 188 to 190 °C.
Work on `Cn1nc(-c2ccccc2)c2c(C(F)(F)F)cc(OCC(=O)N[C@H]3CCc4ccccc43)nc21` yielded a melting point of 203 to 205 °C.
`C#CC(=O)NC[C@@H]1CN2C(=O)C[C@H]2O1` (racemic) showed a melting point of 76.5 to 78 °C.
Compound `CCCc1c(C(=O)OCC)[nH]c(CC)c1C` has a melting point of 73 to 74 °C.
Work on `CCOC(=O)c1cnn(-c2cccc(Cl)c2)c1Cl` yielded a melting point of 61 to 63 °C.
`O=C1CC(N2Cc3ccc(F)cc3NC2=O)C(=O)N1` (stereo unspecified) gave a melting point of 283 to 285 °C.
`O=c1c2ccccc2n(CCCCN2CCC(OC(c3ccccc3)c3ccccc3)CC2)c(=O)n1CCO` showed a melting point of 145 to 150 °C.
Compound `COc1cccc2oc(-c3ccc(Cl)cc3)cc(=O)c12` has a melting point of 171 to 172 °C.
In the case of `Fc1ccc(C2CSCC(=S)N2)cc1` (stereo unspecified), the melting point is reported as 107 to 108 °C.
Compound `CC(C)N1C(=O)C(C)(C)N=C(c2ccccc2Cl)c2cc(N)ccc21` has a melting point of 243 to 244 °C.
Work on `CC(C)c1cccc(C(C)C)c1N1C(=O)c2cccc3c(C(N)=O)ccc(c23)C1=O` yielded a melting point of 233 °C.
For `O=C1CCOc2c1ccc(O)c2Cc1ccccc1`, the melting point was 176 °C.
In the case of `CSc1ccc(C(=O)O)cc1OC1CCCC1`, the melting point is reported as 158 to 160 °C.
`CCCCc1cc2ccc(C(=O)O)cc2o1` showed a melting point of 102 to 104 °C.
Work on `O=C(c1ccc(F)cc1)c1cccc(C#Cc2ccc(F)cc2)c1` yielded a melting point of 127 to 128 °C.
In the case of `C[Si](C)(C)C#Cc1c(C(F)(F)F)nn(-c2c(Cl)cc(C(F)(F)F)cc2Cl)c1N`, the melting point is reported as 120 to 123 °C.
Work on `NC(CF)(Cc1ccc(O)c(O)c1)C(=O)O` (stereo unspecified) yielded a melting point of 230 °C.
`CCCCCCCCCC(C)(C)c1cc(-c2cc3ccc(C(=O)O)cc3o2)ccc1OC` gave a melting point of 150 °C.
In the case of `COc1cc(CCCC2OC(=O)NC2=O)ccc1OCc1nc(-c2ccccc2)no1` (stereo unspecified), the melting point is reported as 110 to 111 °C.
Work on `CCCNC(=O)c1ccccc1N=C(NC(=O)c1ccccc1)SC` yielded a melting point of 86 to 89 °C.
`O=C(O)CCCc1cccc(NC(=O)[C@@H](CS)Cc2ccccc2)c1` showed a melting point of 149 to 152 °C.
In the case of `O=C1C(=Cn2ccnc2)c2ccccc2N1c1cccc(Cl)c1`, the melting point is reported as 164 to 166 °C.
`COc1nc(NC(COC(=O)NC(C)C)C(C)(C)C)nc(OC)c1[N+](=O)[O-]` (stereo unspecified) gave a melting point of 110 °C.
Compound `Clc1ccc(-c2nnnn2Cc2ccccc2)s1` has a melting point of 176 to 177 °C.
With `CC(C)(C)N1C(=O)[C@@H]2C[C@H]1CN2C(=O)[C@@H](O)[C@H](Cc1ccccc1)NC(=O)[C@H](CC(N)=O)NC(=O)OCc1ccccc1` the melting point was 112 to 115 °C.
`O=[N+]([O-])c1ccc2sc(CCl)cc2c1` showed a melting point of 110 to 112 °C.
With `CCc1ncc(CCCOc2c(C)cc(C#N)cc2C)s1` the melting point was 52 to 53 °C.
With `COc1ccc([C@@H]2C[C@H]2CNC(=O)N(C)O)cc1` (relative stereo) the melting point was 112 °C.
Work on `O=[N+]([O-])c1ccc(SC2SCC(O)C(O)C2O)cc1` (stereo unspecified) yielded a melting point of 168 °C.
`CC(C)(C)C(=O)Nc1n[nH]c(C(C)(C)C)c1Cl` showed a melting point of 156 to 158 °C.
For `Cc1cc(C)cc(NC(=O)NC2CC2)c1`, the melting point was 169 °C.
Compound `CCCCc1c(C(=O)O)cc(Cl)cc1[N+](=O)[O-]` has a melting point of 218 to 220 °C.
`NC(C(=O)N1CCC(F)C1)C1CCCCC1` (mixture of isomers) showed a melting point greater than 250 °C.
For `CC(C)Oc1ccccc1-c1cc(=O)c2cc(C(=O)O)ccc2o1`, the melting point was 133 to 135 °C.
With `COC(=O)c1ccc2[nH]nnc2c1C(=O)OC` the melting point was 147 to 150 °C.
With `CC(CCNc1cccc(-c2ccnc3c(C(=O)c4cccs4)cnn23)c1)CC(C)(C)C` (stereo unspecified) the melting point was 81 to 85 °C.
In the case of `COC(=O)C(C)Oc1c(C#N)cnn1-c1ccc(C(F)(F)F)cc1Cl` (stereo unspecified), the melting point is reported as 82 to 85 °C.
For `CCOC(=O)CC(Cc1ccccc1)NC(=O)c1ccc(OC)cc1` (stereo unspecified), the melting point was 102 to 104 °C.
`CCOC(=O)N1CCCc2nc3cc(C)ccc3c(C)c2C1` showed a melting point of 132 °C.
`Cc1c(-c2ccncc2)sc2c1C(=O)CCC2` showed a melting point of 129 to 130 °C.
With `CN(Cc1cc2c3c(c1)c(=O)c(C(=O)NCc1ccc(F)cc1)cn3CC(=O)N2C)C[C@@H](O)c1cccs1` the melting point was 113 to 115 °C.
For `CC(=O)NC[C@H]1CN(c2ccc(/C=C3\C(=O)N(c4ccccc4)N=C3C(C)(C)C)cc2)C(=O)O1`, the melting point was 70 °C.
Compound `Cc1oc(-c2ccccc2)nc1COc1nn(Cc2ccc(Oc3ccccc3)cc2)cc1C(=O)O` has a melting point of 222 to 223 °C.
In the case of `Fc1ccc(-c2[nH]nc(Br)c2-c2ccncc2)cc1F`, the melting point is reported as 285 to 290 °C.
`O=C(O)c1cnc2c(NC(=O)c3c(Cl)cccc3Cl)cccc2c1` gave a melting point greater than 250 °C.

Source: a melting point compilation (Tetko et al.; mined from patent text by program, amines drawn as free bases though some values may be those of a salt)
